The values below come from patent US10005817B2, “Peptide pharmaceuticals” (EUMEDERIS PHARMACEUTICALS, INC., priority 2012, dated 2018).

In assay [1] the target is T1, PTH receptor (PTHR1) (Homo sapiens, UniProt Q03431).
T1 construct: Cerep SA
T1 sequence (Q03431 27-593): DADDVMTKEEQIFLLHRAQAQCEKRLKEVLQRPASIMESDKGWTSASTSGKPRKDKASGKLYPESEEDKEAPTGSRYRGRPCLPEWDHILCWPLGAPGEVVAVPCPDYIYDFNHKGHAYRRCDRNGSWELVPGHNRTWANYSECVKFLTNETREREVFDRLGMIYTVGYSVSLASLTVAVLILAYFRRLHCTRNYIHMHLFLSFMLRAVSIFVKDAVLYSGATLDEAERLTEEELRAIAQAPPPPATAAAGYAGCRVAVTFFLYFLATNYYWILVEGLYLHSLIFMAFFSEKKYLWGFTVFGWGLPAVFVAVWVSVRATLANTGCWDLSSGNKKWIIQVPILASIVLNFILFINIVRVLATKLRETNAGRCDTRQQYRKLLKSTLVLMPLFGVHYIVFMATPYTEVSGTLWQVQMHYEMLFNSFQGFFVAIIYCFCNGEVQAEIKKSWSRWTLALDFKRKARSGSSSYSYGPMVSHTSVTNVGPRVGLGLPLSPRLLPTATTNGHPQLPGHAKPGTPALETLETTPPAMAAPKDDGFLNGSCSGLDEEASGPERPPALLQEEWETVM
The experiment in a line: PTH1 cellular assay, cAMP, agonist mode (SaOS2 cells, Cerep). In kind it is cell-based. The note with it: for Emax: SAOS-2, read-out: Maximal response (% PTHrP). As for the experimental part:
Compounds were weighed precisely in an amount of approximately 1 mg and assayed in standard cellular assays (cerep SA). The readout is the amount of cAMP generated in the cells treated with the test compounds, in either agonist or antagonist mode.
Compounds were dissolved in water and diluted in assay buffer containing 1% bovine serum albumin.

For assay [2], the target named is T2, mu opioid receptor (Homo sapiens, UniProt P35372).
T2 construct: Cerep
T2 sequence (P35372 whole entry): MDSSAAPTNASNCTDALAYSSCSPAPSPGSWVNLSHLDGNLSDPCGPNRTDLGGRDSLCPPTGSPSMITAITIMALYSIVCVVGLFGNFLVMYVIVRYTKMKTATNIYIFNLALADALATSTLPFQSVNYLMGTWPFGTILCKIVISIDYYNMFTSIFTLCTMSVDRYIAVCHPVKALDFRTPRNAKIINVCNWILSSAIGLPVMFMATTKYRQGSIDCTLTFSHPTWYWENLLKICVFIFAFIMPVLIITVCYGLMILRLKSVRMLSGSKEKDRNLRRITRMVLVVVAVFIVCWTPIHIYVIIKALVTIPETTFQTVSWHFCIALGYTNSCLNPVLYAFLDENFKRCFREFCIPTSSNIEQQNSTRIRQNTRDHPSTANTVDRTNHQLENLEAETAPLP
The experiment in a line: mu opioid receptor cellular assay (MOP), agonist mode, cAMP readout (Cerep). Type of assay: cell-based. As for the experimental part:
Compounds were weighed precisely in an amount of approximately 2 mg and assayed in standard cellular assays by the contract research organization Cerep, Inc. (Pullman, Wash.) as executed at their subsidiary, Cerep SA (Le Bois l'Eveque, France). The readout is the amount of cAMP generated in the cells treated with the test compounds, in either agonist or antagonist mode. The assays used were the mu opioid receptor cellular assay (MOP in agonist and antagonist mode), the delta2 opioid receptor cellular assay (DOP in agonist and antagonist mode) and the kappa opioid receptor cellular assay (KOP in agonist and antagonist mode). The assays used are described in Wang, J. B., et al. (1994) FEBS Lett 338: 217-222, Law, P. Y. and Loh, H. H. (1993) Mol Pharmacol 43: 684-693, and Avidor-Reiss, T., et al. (1995) FEBS Lett 361: 70-74. The stimulant for the cells in the DOR antagonist assay was 3×10E-8M DPDPE, a well-accepted DOR literature standard.

Assay [3] concerns db/db mice. Nature of the assay: db/db mice, blood glucose after s.c. dosing. Type of assay: in vivo, mouse. The following applies: db/db mice, s.c., 250 nmole/kg. As for the experimental part: The 60 female db/db B6BKS (D) Leprdb/J (strain 000697) mice for this study were approximately 8 to 9 weeks old at arrival (Jackson Laboratory, Bar Harbor, Me.). […] One group of 8 female mice served as the vehicle control and received the vehicle, 0.2% BSA in saline, pH 7.4. One additional group of 8 female mice received the positive control article, liraglutide, at a dose level of 50 nmoles/kg. The test articles, vehicle, and positive control article were administered on Day 1, at approximately 0, 7, and 24 hours during the study via subcutaneous injection at a dose volume of 6 mL/kg.
Clinical observations were conducted at receipt, prior to randomization, and daily from Days 1 to 5. Body weights were measured and recorded at receipt, prior to randomization, and daily from Days 1 to 5. Food consumption was measured and recorded daily from Days 1 to 5. Blood samples for glucose analysis were collected pretest (Day −3) and at 0, 1, 2, 4, 8, 10, 24, 48, 72, and 96 hours following the first dose on Day 1. At study termination all animals were euthanized and the carcasses were discarded without further evaluation.

Positions of bridges follow the written chain, without caps; N, C: chain ends. Non-standard residues stand in square brackets, D forms with d. Residues, ends and D or L forms follow the SMILES beside them. *: point of attachment. GlcA(β-D,1-O-dodecyl) = CCCCCCCCCCCCO[C@@H]1O[C@H](C(=O)*)[C@@H](O)[C@H](O)[C@H]1O; βGlcA(1-OMe) = CO[C@@H]1O[C@H](C(=O)*)[C@@H](O)[C@H](O)[C@H]1O; Phe(2,4,6-Me3) = Cc1cc(C)c(C[C@H](N)C(=O)O)c(C)c1; Dmt = Cc1cc(O)cc(C)c1C[C@H](N)C(=O)O; hArg = N=C(N)NCCCC[C@H](N)C(=O)O; Nle = CCCC[C@H](N)C(=O)O; Ac5c = NC1(C(=O)O)CCCC1; Aib = CC(C)(N)C(=O)O

Turning to `CCCCCCCCCCCCO[C@@H]1O[C@H](C(=O)NCCCC[C@H](NC(=O)[C@H](CCC(N)=O)NC(=O)[C@@H](NC(=O)[C@H](Cc2c[nH]c3ccccc23)NC(=O)[C@H](CCCNC(=N)N)NC(=O)[C@H](C)NC(=O)[C@H](CCCCNC(=N)N)NC(=O)[C@H](CCC(N)=O)NC(=O)[C@H](Cc2c[nH]cn2)NC(=O)[C@H](CCCC)NC(=O)[C@H](CC(C)C)NC(=O)[C@H](CCC(N)=O)NC(=O)[C@@H](NC(=O)[C@H](CCC(=O)O)NC(=O)C(C)(C)NC(=O)[C@@H](NC(=O)C2(N)CCCC2)C(C)C)[C@@H](C)CC)[C@@H](C)CC)C(N)=O)[C@@H](O)[C@H](O)[C@H]1O` [EU-204] (H-[Ac5c]V[Aib]EIQL[Nle]HQ[hArg]ARWIQK(GlcA(β-D,1-O-dodecyl))-NH2), in assay [1], the Characterization result is recorded as “agonist”, the response was half-maximal at 20 nM (EC50) and the Emax is 135%.

Turning to `CCCCCCCCCCCCO[C@@H]1O[C@H](C(=O)NCCCC[C@H](NC(=O)C(C)(C)NC(=O)[C@H](CCC(N)=O)NC(=O)[C@@H](NC(=O)[C@H](Cc2c[nH]c3ccccc23)NC(=O)[C@H](CCCNC(=N)N)NC(=O)[C@H](C)NC(=O)[C@H](CCCCNC(=N)N)NC(=O)[C@H](CCC(N)=O)NC(=O)[C@H](Cc2c[nH]cn2)NC(=O)[C@H](CCCC)NC(=O)[C@H](CC(C)C)NC(=O)[C@H](CCC(N)=O)NC(=O)[C@@H](NC(=O)[C@H](CCC(=O)O)NC(=O)C(C)(C)NC(=O)[C@@H](NC(=O)C2(N)CCCC2)C(C)C)[C@@H](C)CC)[C@@H](C)CC)C(N)=O)[C@@H](O)[C@H](O)[C@H]1O` [EU-207] (H-[Ac5c]V[Aib]EIQL[Nle]HQ[hArg]ARWIQ[Aib]K(GlcA(β-D,1-O-dodecyl))-NH2; N-terminus assumed), in assay [1], the Characterization result was “agonist” and the Emax is 110%.

In the case of `CCCCCCCCCCCCO[C@@H]1O[C@H](C(=O)NCCCC[C@H](NC(=O)[C@H](CC(C)C)NC(=O)[C@H](Cc2ccccc2)NC(=O)[C@@H]2CCC(=O)NCCCC[C@H](NC(=O)[C@H](CC(=O)O)NC(=O)[C@H](CCC(N)=O)NC(=O)[C@@H](NC(=O)[C@H](Cc3c[nH]c4ccccc34)NC(=O)[C@H](CCCNC(=N)N)NC(=O)[C@H](C)NC(=O)[C@H](CCCCNC(=N)N)NC(=O)[C@H](CCC(N)=O)NC(=O)[C@H](Cc3c[nH]cn3)NC(=O)[C@H](CCCC)NC(=O)[C@H](CC(C)C)NC(=O)[C@H](CCC(N)=O)NC(=O)[C@@H](NC(=O)[C@H](CCC(=O)O)NC(=O)C(C)(C)NC(=O)[C@@H](NC(=O)C3(N)CCCC3)C(C)C)[C@@H](C)CC)[C@@H](C)CC)C(=O)N[C@@H](CCCNC(=N)N)C(=O)N[C@@H](CCCNC(=N)N)C(=O)N[C@@H](CCCNC(=N)N)C(=O)N2)C(=O)NC(C)(C)C(N)=O)[C@@H](O)[C@H](O)[C@H]1O` [EU-284] (H-[Ac5c]V[Aib]EIQL[Nle]HQ[hArg]ARWIQDKRRREFLK(GlcA(β-D,1-O-dodecyl))[Aib]-NH2; lactam 18-22; N-terminus assumed), in assay [1], the Characterization entry is on record as “agonist” and the Emax turned out to be 110%.

Regarding `CO[C@@H]1O[C@H](C(=O)NCCCC[C@H](NC(=O)[C@H](Cc2c(C)cc(C)cc2C)NC(=O)[C@@H]2CCCN2C(=O)[C@@H](N)Cc2c(C)cc(O)cc2C)C(N)=O)[C@@H](O)[C@H](O)[C@H]1O` [EU-A101, Dmt-Pro-Tmp-Lys(C1-glucuronyl)-NH2] (H-[Dmt]P[Phe(2,4,6-Me3)]K(βGlcA(1-OMe))-NH2), in assay [2], the “Characterization (MOP)” value was “pure agonist” and the EC50 (commonly the concentration needed to bring the measured effect to its halfway point) came out at 13 nM.

Take `CO[C@@H]1O[C@H](C(=O)NCCCC[C@@H](NC(=O)[C@@H](N)Cc2c(C)cc(O)cc2C)C(=O)N[C@@H](Cc2c(C)cc(C)cc2C)C(=O)N[C@@H](Cc2ccccc2)C(N)=O)[C@@H](O)[C@H](O)[C@H]1O` [EU-A107, Dmt-D-Lys(C1-glucuronyl)-Tmp-Phe-NH2] (H-[Dmt][dK](βGlcA(1-OMe))[Phe(2,4,6-Me3)]F-NH2; N-terminus assumed): in assay [2], the “Characterization (MOP)” value is recorded as “Agonist” and the response was half-maximal at 60 nM (EC50).

In the case of `CCCCCCCCO[C@@H]1O[C@H](C(=O)NCCCC[C@H](NC(=O)[C@@H](NC(=O)[C@H](Cc2ccccc2)NC(=O)[C@H](CCC(=O)O)NC(=O)[C@@H]2CCCCNC(=O)CC[C@H](NC(=O)[C@H](CC(=O)O)NC(=O)[C@H](CC(C)C)NC(=O)[C@H](Cc3ccc(O)cc3)NC(=O)[C@H](CCCCN)NC(=O)[C@H](CO)NC(=O)[C@H](Cc3ccc(O)cc3)NC(=O)[C@H](CC(=O)O)NC(=O)[C@H](CO)NC(=O)[C@@H](NC(=O)[C@H](Cc3ccccc3)NC(=O)[C@@H](NC(=O)CNC(=O)[C@H](CCC(N)=O)NC(=O)C(C)(C)NC(=O)[C@@H](N)Cc3c[nH]cn3)[C@@H](C)O)[C@@H](C)O)C(=O)N[C@@H](CCC(N)=O)C(=O)N[C@@H](C)C(=O)N[C@@H](C)C(=O)N2)[C@@H](C)CC)C(=O)N[C@@H](Cc2c[nH]c3ccccc23)C(=O)N[C@@H](CC(C)C)C(=O)N[C@@H](CC(C)C)C(=O)N[C@@H](CCC(N)=O)C(=O)N[C@H](C(N)=O)[C@@H](C)O)[C@@H](O)[C@H](O)[C@H]1O` [EU-A992], the “Mean Blood Glucose” value in assay [3] (0 hr) came out at 405 mg/dL; in assay [3] (10 hr), 104 mg/dL; in assay [3] (24 hr), 112 mg/dL; in assay [3] (48 hr), 130 mg/dL.

As to `CCCCCCCCCCO[C@@H]1O[C@H](C(=O)NCCCC[C@H](NC(=O)[C@@H](NC(=O)[C@H](Cc2ccccc2)NC(=O)[C@H](CCC(=O)O)NC(=O)[C@@H]2CCCCNC(=O)CC[C@H](NC(=O)[C@H](CC(=O)O)NC(=O)[C@H](CC(C)C)NC(=O)[C@H](Cc3ccc(O)cc3)NC(=O)[C@H](CCCCN)NC(=O)[C@H](CO)NC(=O)[C@H](Cc3ccc(O)cc3)NC(=O)[C@H](CC(=O)O)NC(=O)[C@H](CO)NC(=O)[C@@H](NC(=O)[C@H](Cc3ccccc3)NC(=O)[C@@H](NC(=O)CNC(=O)[C@H](CCC(N)=O)NC(=O)C(C)(C)NC(=O)[C@@H](N)Cc3c[nH]cn3)[C@@H](C)O)[C@@H](C)O)C(=O)N[C@@H](CCC(N)=O)C(=O)N[C@@H](C)C(=O)N[C@@H](C)C(=O)N2)[C@@H](C)CC)C(=O)N[C@@H](Cc2c[nH]c3ccccc23)C(=O)N[C@@H](CC(C)C)C(=O)N[C@@H](CC(C)C)C(=O)N[C@@H](CCC(N)=O)C(=O)N[C@H](C(N)=O)[C@@H](C)O)[C@@H](O)[C@H](O)[C@H]1O` [EU-A1167], the “Mean Blood Glucose” value in assay [3] (0 hr) was 379 mg/dL; in assay [3] (10 hr), 171 mg/dL; in assay [3] (24 hr), 117 mg/dL; in assay [3] (48 hr), 113 mg/dL.

As for `CCCCCCCCCCCO[C@@H]1O[C@H](C(=O)NCCCC[C@H](NC(=O)[C@@H](NC(=O)[C@H](Cc2ccccc2)NC(=O)[C@H](CCC(=O)O)NC(=O)[C@@H]2CCCCNC(=O)CC[C@H](NC(=O)[C@H](CC(=O)O)NC(=O)[C@H](CC(C)C)NC(=O)[C@H](Cc3ccc(O)cc3)NC(=O)[C@H](CCCCN)NC(=O)[C@H](CO)NC(=O)[C@H](Cc3ccc(O)cc3)NC(=O)[C@H](CC(=O)O)NC(=O)[C@H](CO)NC(=O)[C@@H](NC(=O)[C@H](Cc3ccccc3)NC(=O)[C@@H](NC(=O)CNC(=O)[C@H](CCC(N)=O)NC(=O)C(C)(C)NC(=O)[C@@H](N)Cc3c[nH]cn3)[C@@H](C)O)[C@@H](C)O)C(=O)N[C@@H](CCC(N)=O)C(=O)N[C@@H](C)C(=O)N[C@@H](C)C(=O)N2)[C@@H](C)CC)C(=O)N[C@@H](Cc2c[nH]c3ccccc23)C(=O)N[C@@H](CC(C)C)C(=O)N[C@@H](CC(C)C)C(=O)N[C@@H](CCC(N)=O)C(=O)N[C@H](C(N)=O)[C@@H](C)O)[C@@H](O)[C@H](O)[C@H]1O` [EU-A1168], the “Mean Blood Glucose” value in assay [3] (0 hr) is 380 mg/dL; in assay [3] (10 hr), 133 mg/dL; in assay [3] (24 hr) it was 169 mg/dL; in assay [3] (48 hr), 164 mg/dL.
